Columns and labels:
[1] = tested on: mouse hippocampal slices; assay: Basal synaptic transmission: fEPSP in hippocampal CA1 region in the presence of Mg2+; assay type: cell-based; conditions: amiloride 100 μM
Procedure: FIG. 6. Representative field-EPSPs and summary data showing the lack of inhibition by amiloride on basal synaptic transmission. In the presence of Mg^2+ (1.0 mM), stimulation of Schaffer collaterals induced field excitatory postsynaptic potential (fEPSP) in the CA1 region of the hippocampus.
Preparation of hippocampal slices and brain slice recording. Hippocampal slices were obtained from 8- to 10-week-old mice. The protocol for brain-slice recording was approved by the Institutional Animal Care and Use Committee of Legacy Research. Animals were deeply anesthetized with isoflurane and decapitated. Brains were quickly removed and placed in ice-cold solution that contained: 125 mM sucrose, 2.5 mM KCl, 26 mM NaHCO3, 1.25 mM NaHPO4, 6.0 mM […], 0.5 mM CaCl2, and 10 mM glucose, and was saturated with 95% O2 and 5% CO2 (pH 7.4). […]
Following ˜60 min of incubation at room temperature, individual slices were transferred to a submerged slice chamber with a volume of 0.5 mL (Warner Instruments, Hamden, Conn.) and perfused with oxygenated aCSF (35° C.) at a rate of 3-4 mL/min. […] The population spike and the field excitatory postsynaptic potentials (fEPSP) were recorded in stratum pyramidale and striatum radiatum of hippocampal CA1 region, by stimulating Schaffer Collaterals.

[2] = tested on: mouse hippocampal slices; assay: Stimulus train-induced after-discharges in hippocampal slices; assay type: cell-based
Procedure: ASIC blockade on seizure-like bursting activity induced by high frequency stimulus trains, e.g., after-discharges (Stasheff et al., 1985), was determined as high frequency electric stimulation generates epileptic bursting without disrupting the balance of excitation versus inhibition thus more closely mimicking epileptogenesis in vivo (Stasheff et al., 1985). Following approximately five trains of stimulation, relatively stable after-discharges were recorded (FIGS. 7A-7E). Amiloride bath perfusion reduced after-discharge duration by about 80% (from 21.0±3.5 sec to 4.7±2.4 sec, n=3; p<0.05) and burst firing frequency by about 90% (from 2.8±0.4 Hz to 0.3±0.1 Hz, n=3, p<0.05, FIG. 7A). Similarly, PcTX1 reduced after-discharge duration from 29.3±8.5 to 11.5±4.1 sec (reduced to 0.44±0.10 of control, n=4, p<0.05) and burst firing frequency from 0.9±0.1 to 0.5±0.2 Hz (reduced to 0.5±0.1 of control, n=4, p<0.05, FIG. 7B). Similar to ASIC1a blockade, seizure activity was attenuated in hippocampal slices from ASIC1^−/− mice (Xiong et al., 2004) (FIGS. 7C-7E). In wild-type (WT) mice, five sets of stimulus trains generated bursting activity with a duration of 13.9±2.0 sec and a firing frequency of 1.6±0.2 Hz, whereas in slices from ASIC1^−/− mice, identical stimulations generated after-discharges of only 5.8±3.3 sec duration and 0.4±0.2 Hz frequency (n=9 for both groups, p<0.05 for difference in duration and p<0.01 for frequency, FIG. 7E).
Preparation of hippocampal slices and brain slice recording. Hippocampal slices were obtained from 8- to 10-week-old mice. The protocol for brain-slice recording was approved by the Institutional Animal Care and Use Committee of Legacy Research. Animals were deeply anesthetized with isoflurane and decapitated. Brains were quickly removed and placed in ice-cold solution that contained: 125 mM sucrose, 2.5 mM KCl, 26 mM NaHCO3, 1.25 mM NaHPO4, 6.0 mM […], 0.5 mM CaCl2, and 10 mM glucose, and was saturated with 95% O2 and 5% CO2 (pH 7.4). Hippocamnpal slices were cut in 400 μm thickness in transverse plane with a vibratome (Leica VT 1000S) and placed in a slice holding chamber (BSC-PC Prechamber, Warner Instrument) and incubated in normal artificial cerebral spinal fluid (aCSF) that contained: 125 mM NaCl, 2.5 mM KCl, 26 mM NaHCO3, 1.25 mM […], 1.0 mM MgSO4, 2.0 mM CaCl2, and 10 mM glucose, and was saturated with 95% O2 and 5% CO2 (pH 7.4).
Following ˜60 min of incubation at room temperature, individual slices were transferred to a submerged slice chamber with a volume of 0.5 mL (Warner Instruments, Hamden, Conn.) and perfused with oxygenated aCSF (35° C.) at a rate of 3-4 mL/min. Recording electrodes were pulled from borosilicate glass and filled with aCSF. The population spike and the field excitatory postsynaptic potentials (fEPSP) were recorded in stratum pyramidale and striatum radiatum of hippocampal CA1 region, by stimulating Schaffer Collaterals.
For low Mg^2+ induced epileptic burst activity, Mg^2+-free aCSF was perfused to the slices for ˜30 min. For stimulus-train induced bursting discharges (STIB), each stimulation train consisted of 120 pulses at 60 Hz and each pulse was 100 μsec in duration (Stasheff et al., 1985). A 10-minute interval of non-stimulation was provided between successive trains of high frequency stimulation. Stimulation electrodes were located in striatum radiatum between CA1 and CA3 region. The population spikes were recorded from striatum pyramidale of the CA3 region.

[3] = 100 μM amiloride bath perfusion

Row | Compound | effect on amplitude or slope of normal fEPSP [1] | after-discharge duration [2, 3] | burst firing frequency [2, 3] | reduction of after-discharge duration [2, 3] | reduction of burst firing frequency [2, 3] | after-discharge duration ([2]; 200 ng/mL PcTX1) | after-discharge duration relative to control ([2]; 200 ng/mL PcTX1) | burst firing frequency ([2]; 200 ng/mL PcTX1) | burst firing frequency relative to control ([2]; 200 ng/mL PcTX1)
1 | NC(N)=NC(=O)c1nc(Cl)c(N)nc1N [amiloride, 3,5-diamino-6-chloro-N(diaminomethylidene)pyrazine-2-carboxamide] | did not affect | 4.7 ± 2.4 s | 0.3±0.1 Hz | about 80% | about 90% |  |  |  | 
2 | Psalmotoxin 1 [PcTX1] |  |  |  |  |  | 11.5 ± 4.1 s | 0.44±0.10 of control | 0.5±0.2 Hz | 0.5±0.1 of control
